# Assay results reported in patent US5627185A, “Acyclovir derivatives as antiviral agents” (priority 1995, dated 1997).
# “And” between values parts separate entries of the source, which are not always exact repeats. Equal entries are not always repeated. Where two headings read alike, the source gives them in different places.
# Experiments:
# [1] = test system: Human Immunodeficiency virus (HIV-1, LAI isolate) replication in CEM TK- cells; experiment: Anti-HIV activity on CEM TK- cells; assay type: cell-based; conditions: Human immunodeficiency virus 1, CEM-TK(-), read-out: EC50 (anti-HIV)
# Experimental: The experimental procedure used for evaluation of activities against Human Immunodeficiency virus (HIV) is as follows:
# HIV-1 replication (LAI isolate) in CEM cells are measured by assaying for […] (RTase) in the culture supernatant after infection for five days. This activity reflects the presence of the virus released by the cells. After absorption of the virus, the test compounds are added at various concentrations in the culture medium. Antiviral activity is expressed as the lowest concentration of compound which reduces the vital production by at least 50% (ED50)
# (§1) 2. Anti-HIV activity on CEM TK- cells of Bis(S-acyl-2-thioethyl) phosphotriesters derivatives of acyclovir, as compared with those of the parent nucleoside and of AZT are shown in Table 2.
# In Table 2, EC50 represents the molar concentration which produces a 50% inhibition of HIV replication. Significant inhibition is shown.
# [2] = in vitro; assay type: cell-based; conditions: human, cem cells
# Experimental: The toxic effect on non-infected CEMs is assessed by a […] reaction based on the capacity of living cells to reduce 3-(4,5 dimethylthiazol-2-yl)-2,5 diphenyltetrazolium bromide into formazan after incubation for five days in the presence of various concentrations of the compounds. The results are expressed as the lowest concentration of compound which results in at least 50% inhibition of the formation of formazan (CD50).
# as §1
# [3] = test system: Human Immunodeficiency virus (HIV); conditions: background; cited from earlier work
# [4] = test system: Hepatitis B virus (HBV); conditions: background; cited from earlier work
# [5] = test system: HSV-1 TK- in MRC-5 cells; experiment: Anti-HSV activity on MRC-5 cells, HSV-1 TK-; assay type: cell-based, Herpes simplex virus type 1 TK-; conditions: Human alphaherpesvirus 1, MRC5, read-out: HSV-1 TK- EC50
# Description: (§2) The experimental procedure used for evaluation of activities against Herpes simplex virus type 1 (HSV-1) is the as described by Genu-Dellac et al. in Nucleosides and Nucleotides, 10, 1345, (1991).
# (§3) 3. Anti HSV activity on MRC-5 cells of Bis(S-acyl-2thioethyl)phosphotriesters derivatives of acyclovir is compared to that of Acyclovir in Table 3.
# (§4) EC50 represents the molar concentration which produces a 50% inhibition of HSV-1 replication. Significant activity is shown.
# [6] = test system: Herpes Simplex virus (HSV); conditions: background; due to selective monophosphorylation by HSV thymidine kinase; cited from earlier work
# [7] = test system: Hepatitis B virus (HBV) replication, HBV virion, in transfected HepG2 (2.2.15) cells; experiment: Anti-HBV activity on transfected HepG2 (2.2.15) cells (HBV virion); assay type: cell-based; conditions: for EC50: 50% inhibition of HBV replication; for EC90: 90% inhibition of HBV replication; for SI: SI = CC50/EC90
# Description: (§5) The experimental procedure used for evaluation of activity against Hepatitis B virus is as previously described by Korba and Milman in Antiviral Res. […].
# (§6) 1. Anti-HBV activity on transfected HepG2 (2.2.15) cells of Bis(S-acyl-2-thioethyl)phosphotriester derivatives of Acyclovir, (compound 9 of Figure I), as compared with those of the parent nucleoside and of 2',3'-dideoxyguanosine (ddG) and 2',3'-dideoxycytidine (ddC) are shown in Table 1.
# (§7) In Table 1, EC90 and EC50 represent the molar concentrations which provide respectively a 90% and a 50% inhibition of HBV replication. CC50 represents the molar concentration which reduces the viability of non-infected cells by 50%.
# [8] = test system: Epstein-Barr virus; conditions: background; thymidine kinase activity reduced or missing; cited from earlier work
# [9] = test system: Herpes simplex virus type 1 (HSV-1) in MRC-5 cells; experiment: Anti-HSV activity on MRC-5 cells, HSV-1; assay type: cell-based; conditions: Human alphaherpesvirus 1, MRC5, 50% inhibition of HSV-1 replication
# Description: as §2, §3, §4
# [10] = Viability of non-infected cells (CC50, Table 1); assay type: cell-based; conditions: human, hepg2 2.2.15 cells, reduces viability of non-infected cells by 50%
# Description: as §5, §6, §7
# [11] = test system: Cytomegalovirus; conditions: background; thymidine kinase activity reduced or missing; cited from earlier work
# [12] = test system: HepG2 (2.2.15) cells; experiment: Viability of non-infected cells (CC50, Table 1); assay type: cell-based; conditions: reduces viability of non-infected cells by 50%
# Description: as §5, §6, §7
# [13] = Hepatitis B virus, HepG2 2.2.15, read-out: HBV virion EC50, transfected HepG2 (2.2.15) cells
# [14] = Hepatitis B virus, HepG2 2.2.15, transfected HepG2 (2.2.15) cells
# [15] = Hepatitis B virus, HepG2 2.2.15, transfected HepG2 (2.2.15) cells, read-out: HBV virion EC50
compound,measurement,setting,value
Cc1cn([C@H]2C[C@H](N=[N+]=[N-])[C@@H](CO)O2)c(=O)[nH]c1=O [AZT],EC50,[1],> 100 µM
same,CC50 at 120 h,[2],> 100 µM
same,"cytotoxicity at 120 h, 100 µM",[2],5%
"Nc1nc2c(ncn2COCCO)c(=O)[nH]1 [Acyclovir, acyclovir]",activity against HIV (in words),[3],no activity
same,EC50,[1],> 100 µM
same,activity against HBV (in words),[4],no activity
same,EC50,[5],> 100 µM
same,anti-herpetic activity (in words),[6],anti-herpetic activity
same,EC50,[7]; [13],111 ± 15 µM
same,EC90,[7]; [14],> 100 µM
same,activity against Epstein-Barr virus (in words),[8],poorly active
same,CC50 at 120 h,[2],> 100 µM
same,"cytotoxicity at 120 h, 100 µM",[2],0%
same,EC50,[9],0.63 µM
same,CC50,[10],631 ± 40 µM
same,activity against Cytomegalovirus (in words),[11],poorly active
"CC(=O)SCCOP(=O)(OCCOCn1cnc2c(=O)[nH]c(N)nc21)OCCSC(C)=O [Bis(SATE)ACVMP, O-[1-(Methyl-[9-guanin-yl])-1-hydroxyethyl-2-yl]-O',O""-bis(S-acetyl-2-thioethyl) phosphate]",EC50,[1],77 µM
same,EC50,[5],100 µM
same,EC50,[7]; [15],0.7 ± 0.1 µM
same,EC90,[7]; [14],5.1 ± 1 µM
same,SI,[7],194
same,CC50 at 120 h,[2],> 100 µM
same,"cytotoxicity at 120 h, 100 µM",[2],0%
same,EC50,[9],1.25 µM
same,CC50,[10],987 ± 99 µM
"CC(C)(C)C(=O)SCCOP(=O)(OCCOCn1cnc2c(=O)[nH]c(N)nc21)OCCSC(=O)C(C)(C)C [Bis(SPTE)ACVMP, O-[1-(Methyl-[9-guanin-yl]) -1-hydroxyethyl-2-yl]-O',O""-bis(S-pivaloyl-2-thioethyl) phosphate]",EC50,[1],3.6 µM
same,EC50,[5],10 µM
same,EC50,[7]; [15],0.2 ± 0.04 µM
same,EC90,[7]; [14],7.1 ± 0.8 µM
same,SI,[7],224
same,CC50 at 120 h,[2],> 10 µM
same,"cytotoxicity at 120 h, 10 µM",[2],26%
same,EC50,[9],2.5 µM
same,CC50,[10],1590 ± 131 µM
"Nc1ccn([C@H]2CC[C@@H](CO)O2)c(=O)n1 [ddC, 2',3'-dideoxycytidine]",EC50,[7]; [13],1.3 ± 0.2 µM
same,SI,[7],20 and 30
same,EC50,"[7]; transfected HepG2 (2.2.15) cells, read-out: HBV virion EC50",2.2 ± 0.3 µM
same,CC50,[10],219 ± 19 µM
same,CC50,[12],218 ± 19 µM
